Molecular target: calcium-dependent protein kinase 1 (CDPK1, CDPK1^G; TGGT1_301440) (Toxoplasma gondii, UniProt Q9BJF5)
Test: kinase assay with recombinant purified enzyme in excess calcium
Format: biochemical

## Cc1cccc(Cc2nn(C(C)(C)C)c3ncnc(N)c23)c1 [3-MB, 3-MB-PP1]
  IC50: 79 nM

Reference: paper PMC7585386 (ACS chemical biology, 2020)
